Measurements from patent US20070078168A1, “PYRIDINE CARBOXYLIC ACID DERIVATIVES AS GLUCOKINASE MODULATORS” (priority 2003, published 2007).

How the values were obtained:
[1] = Plasma protein binding by equilibrium dialysis; type: in vitro ADME; conditions: rat, 37° C., plasma vs isotonic phosphate buffer pH 7.4, read-out: % free in plasma
Method: (§1) Measurement of Plasma Levels and Plasma Protein Binding Following Oral Administration to Rats
The plasma protein binding of compounds was measured using the equilibrium dialysis technique (W. Lindner et al, J. Chromatography, 1996, 677, 1-28 ). Compound was dialysed at a concentration of 20 μM for 18 hours at 37° C. with plasma and isotonic phosphate buffer pH 7.4 (1 ml of each in the dialysis cell). A Spectrum® 20-cell equilibrium dialyser was used together with Teflon, semi-micro dialysis cells and Spectra/Por®2 membrane discs with a molecular weight cut off 12-14000 Dalton, 47 mm (supplied by PerBio Science UK Ltd, Tattenhall, Cheshire). Plasma and buffer samples are removed following dialysis and analysed using HPLCUV/MS (high performance liquid chromatography with UV and mass spec detection) to give the % free level in plasma.

[2] = Plasma levels following oral administration to rats; type: in vivo; conditions: rat, oral gavage; including both bound and free; normalised dose of 1 mg compound per kilogram of rat body weight
Method: as §1
Planetary Milled compounds [15 mins, 500 rpm, 5 Zirconium Balls, in a Puluerisette 7 Mill (Glen Creston Ltd, Stanmore, Middlesex, UK)] were suspended in 0.5% HPMC Tween and dosed to High Fat Fed (Research Diets, D12451, ad lib feeding 14 days) Female Alderley Park Zucker or Alderley Park Wistar rats at rate of 5 mls/kg, at doses between 0.3 and 10 mg/kg by oral gavage.
Samples of plasma were obtained either by conscious blood sampling or terminal blood sampling as follows:
Conscious blood sampling (for compound level or blood chemistry)—Intravenous blood samples were taken from tail vein using 600 μl Starstedt Multivette (EDTA) and 22 G needle at the required time point. […]
The reconstituted samples were then analysed using high performance liquid chromatography with tandem mass spectrometry detection (HPLC-MS-MS)”. […]
The concentration of test samples was determined from the ratio of the peak height of the test sample to the peak height of the internal standard. The concentration of the test sample was calculated with reference to a standard curve relating the ratio to the concentration prepared by using known concentrations of test sample added to samples of rat plasma using (3-isopropoxy-5-benzyoxy-benzoyl)amino pyridine 3-carboxylic acid as an internal standard, treated as described above.

COC[C@H](C)Oc1cc(O[C@@H](C)Cc2ccccc2OC)cc(C(=O)Nc2ccc(C(=O)O)cn2)c1 [Example 2.1, 6-{3-[(1S)-1-methyl-2-(2-methoxyphenyl)ethoxy]-5-[(1S)-2-methoxy-1-methylethoxy]-benzoylamino}-3-pyridine carboxylic acid]
fraction unbound at 18 hours, 20 μM [1]: 0.0042 | Peak Blood levels [2]: 1.29 µM
